Reference: ChEMBL document CHEMBL1629679, “Extended-spectrum cephalosporinases in Pseudomonas aeruginosa” (2009)

Columns and labels:
[1] = tested on: Pseudomonas aeruginosa; experiment: Activity at Pseudomonas aeruginosa PDC-2 by spectrophotometer
[2] = tested on: Pseudomonas aeruginosa; experiment: Ratio of Kcat to Km for Pseudomonas aeruginosa PDC-3 by spectrophotometer
[3] = tested on: Pseudomonas aeruginosa; experiment: Activity at Pseudomonas aeruginosa PDC-3 by spectrophotometer
[4] = tested on: Pseudomonas aeruginosa; experiment: Ratio of Kcat to Km for Pseudomonas aeruginosa PDC-2 by spectrophotometer

SMILES	Km [1] [µM]	kcat [1] [s⁻¹]	kcat/Km [2] [M⁻¹ s⁻¹]	Km [3] [µM]	kcat [3] [s⁻¹]	kcat/Km [4] [M⁻¹ s⁻¹]
CC1(C)S[C@@H]2[C@H](NC(=O)Cc3ccccc3)C(=O)N2[C@H]1C(=O)O	30	35	1.2e+06	30	35	1.2e+06
CCN1CCN(C(=O)N[C@@H](C(=O)N[C@@H]2C(=O)N3[C@@H]2SC(C)(C)[C@@H]3C(=O)O)c2ccccc2)C(=O)C1=O	40	5.5	125000	40	5	135000
CC(C)(O/N=C(\C(=O)N[C@@H]1C(=O)N2C(C(=O)[O-])=C(C[n+]3ccccc3)CS[C@H]12)c1csc(N)n1)C(=O)O	20	0.01	600	35	0.02	500
CO/N=C(\C(=O)N[C@@H]1C(=O)N2C(C(=O)O)=C(COC(C)=O)CS[C@H]12)c1csc(N)n1	5	5	20000	8	0.15	30000
C[C@@H](O)[C@H]1C(=O)N2C(C(=O)O)=C(SCCNC=N)C[C@H]12	35	0.2	5000	20	0.1	5000
CO/N=C(\C(=O)N[C@@H]1C(=O)N2C(C(=O)[O-])=C(C[N+]3(C)CCCC3)CS[C@H]12)c1csc(N)n1	850	2	1500	1300	2	2000
